How the values were obtained:
[1] = cited from earlier work
[2] = set-up: method as in PMID 29481660; conditions: participants with diabetic kidney disease, phase 2 trial; cited from earlier work
[3] = test system: IL-21 signaling in T cells; assay: IL-21-induced pSTAT3 in spleen T cells in vitro (flow cytometry); type: cell-based, mouse; conditions: 0.05, 0.2, 1 and 2 µM, CD8+ and CD4+ T cells, Fig S2K-L
Method: […] […] For use in vivo, 3 mg/kg or 10 mg/kg of drug was delivered twice daily by oral gavage in the vehicle 0.5% hydroxypropyl methylcellulose in sterile H2O. The JAK1/JAK2 inhibitor baricitinib was purchased from SelleckChem and used at a concentration of 3 mg/kg in vivo made up in a vehicle of 0.5% methyl cellulose.
Single-cell suspensions from the spleens were prepared by mechanical tissue disruption through a 70 μm cell strainer followed by red cell lysis. Cells were resuspended in FACS buffer (0.5% FCS in PBS) and filtered through a nylon mesh.
Whole islets were treated with vehicle or ABT 317 for 1 h before culture with 10 ng/ml IFN-γ for 72 h, and analysis by flow cytometry. Splenocytes and whole blood were stimulated with 100 U/ml IL-2, 50 ng/ml IL-7, 30 ng/ml IL-15, 25 ng/ml IL-21, or 40 ng/ml GM-CSF for 30 min at 37°C. Red blood cells were lysed (155 mmol/L NH4Cl, 10 mmol/L Tris-HCl, pH 7.5). Leukocytes were analyzed by flow cytometry.
Mouse islet cells were stained with anti-CD45 and biotinylated anti-H2Kd (BD Pharmingen) followed by streptavidin-allophycocyanin (BioLegend). β‐cells were identified by autofluorescence ([23]). Dead cells were excluded using propidium iodide. […] Data were collected on the FACS Fortessa cell analyzer (BD Bioscience, San Jose, CA, USA) and were analyzed using FlowJo Software version 10 (TreeStar, Inc, Ashland, OR, USA).

[4] = test system: JAK1 over JAK2; set-up: method as in PMID 30806706, PMID 27390150; conditions: cited from earlier work
[5] = test system: JAK1 over JAK3; set-up: method as in PMID 30806706, PMID 27390150; conditions: cited from earlier work
[6] = test system: JAK2-dependent cytokines IL-3 and GM-CSF; conditions: cited from earlier work
[7] = test system: autoimmune insulitis in NOD mice; set-up: method as in PMID 28292965; conditions: cited from earlier work
[8] = test system: IFN-γ mediated MHC class I upregulation on β cells; set-up: method as in PMID 28292965; conditions: cited from earlier work

Which anemia ([1]; rheumatoid arthritis patients) does the source give for O=C(Nc1nc2cccc(-c3ccc(CN4CCS(=O)(=O)CC4)cc3)n2n1)C1CC1 [filgotinib] here?
Its anemia is “did not result in anemia”.

Which results are given for CCS(=O)(=O)N1CC(CC#N)(n2cc(-c3ncnc4[nH]ccc34)cn2)C1 [baricitinib]?
albuminuria [2]: reduction; blocking IL-21 signaling through pSTAT3, dose dependence [3]: similar; neutropenia in clinical trials [1]: neutropenia has been found

With C[C@@H]1CCN(C(=O)CC#N)C[C@@H]1N(C)c1ncnc2[nH]ccc12 [tofacitinib] as the compound, how does the “blocking IL-21 signaling through pSTAT3, dose dependence” value [3] read?
Its value is “similar”.

Which results are given for CC[C@@H]1CN(C(=O)NCC(F)(F)F)C[C@@H]1c1cnc2cnc3[nH]ccc3n12 [upadacitinib]?
selectivity for JAK1 over JAK2 [4]: 74 fold; selectivity for JAK1 over JAK3 [5]: 58 fold; effect on JAK2-dependent cytokines IL-3 and GM-CSF [6]: inhibits

Which established autoimmune insulitis [7] does the source give for Cc1cc(Nc2nc(N[C@@H](C)c3ncc(F)cn3)ncc2Cl)n[nH]1 [AZD1480] here?
Its established autoimmune insulitis is “reversed”.

What about the “immune cell infiltration into pancreatic islets” value [7] of the same compound?
The value was “reduced”.

What about the “IFN-γ mediated MHC class I upregulation on β cells” value [8] of the same compound?
The value was “blocked”.
